# Results as given in patent US9090625B2, “Therapeutic pyrazolyl thienopyridines” (Thesan Pharmaceuticals, Inc., priority 2006, dated 2015).
# Tested on: Smad binding element (SBE) luciferase reporter activity in TGFβ1 stimulated NIH-3T3 cells
# Assay: ALK-5 gene reporter assay: Smad binding element (SBE) luciferase reporter in TGFβ1 stimulated NIH-3T3 cells
# Details: Mus musculus, NIH3T3
smiles,measurement,value
"CCc1cnn(-c2cccc(C)n2)c1-c1cc2cnccc2s1 [Example 4, 2-[4-ethyl-1-(6-methylpyridin-2-yl)-1H-pyrazol-5-yl]thieno[3,2-c]pyridine]",IC50,21.5 nM
